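Results reflect a 48-hour exposure of cells in 96-well plates to compound at five concentrations. GI50: concentration for 50% inhibition of growth. TGI is the concentration that stops growth completely.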
Experiments:
Test in all cases: NCI anticancer screen, dose series, 48 h
[1] = system: 786-0 renal
[2] = system: A498 renal
[3] = system: A549 NSCLC
[4] = system: ACHN renal
[5] = system: BT-549 breast
[6] = system: CAKI-1 renal
[7] = system: CCRF-CEM leukemia
[8] = system: COLO 205 colon
[9] = system: DU-145 prostate
[10] = system: EKVX NSCLC
[11] = system: HCC-2998 colon
[12] = system: HCT-116 colon
[13] = system: HCT-15 colon
[14] = system: HL-60(TB) leukemia
[15] = system: HOP-62 NSCLC
[16] = system: HOP-92 NSCLC
[17] = system: HS 578T breast
[18] = system: HT29 colon
[19] = system: IGROV1 ovarian
[20] = system: K-562 leukemia
[21] = system: KM12 colon
[22] = system: LOX IMVI melanoma
[23] = system: M14 melanoma
[24] = system: MALME-3M melanoma
[25] = system: MCF7 breast
[26] = system: MDA-MB-231 breast
[27] = system: MDA-MB-435
[28] = system: MOLT-4 leukemia
[29] = system: NCI-H226 lung
[30] = system: NCI-H23 lung
[31] = system: NCI-H460 lung
[32] = system: NCI-H522 lung
[33] = system: NCI/ADR-RES ovarian
[34] = system: OVCAR-3 ovarian
[35] = system: OVCAR-4 ovarian
[36] = system: OVCAR-5 ovarian
[37] = system: OVCAR-8 ovarian
[38] = system: PC-3 prostate
[39] = system: RPMI-8226 leukemia
[40] = system: RXF 393 renal
[41] = system: SF-268 CNS
[42] = system: SF-295 CNS
[43] = system: SF-539 CNS
[44] = system: SK-MEL-2 melanoma
[45] = system: SK-MEL-28 melanoma
[46] = system: SK-MEL-5 melanoma
[47] = system: SK-OV-3 ovarian
[48] = system: SN12C renal
[49] = system: SNB-19 CNS
[50] = system: SNB-75 CNS
[51] = system: SR leukemia
[52] = system: SW-620 colon
[53] = system: T-47D breast
[54] = system: TK-10 renal
[55] = system: U251 CNS
[56] = system: UACC-257 melanoma
[57] = system: UACC-62 melanoma
[58] = system: UO-31 renal

With `C/C(=N/NC(N)=S)c1ccc(Nc2nc(SCC(C)C)nc(-c3ccc(F)cc3)c2C#N)cc1` the GI50 [1] was 2.07 µM, the TGI [1] was 13.8 µM and the GI50 [2] was 2.99 µM. The TGI [2] was 8.8 µM, the GI50 [3] was 0.488 µM and the TGI [3] was 10.9 µM. For the same molecule, the GI50 [4] was 0.423 µM, the TGI [4] was 11.4 µM and the GI50 [5] was 4.04 µM. The TGI [5] was 18.4 µM, the GI50 [6] was 1.65 µM and the TGI [6] was 7.49 µM. For the same molecule, the GI50 [7] was 5.83 µM, the TGI [7] was greater than 100 µM and the GI50 [8] was 1.18 µM. The TGI [8] was 22.1 µM, the GI50 [9] was 1.55 µM and the TGI [9] was 20.3 µM. It also gave a GI50 [10] of 4.53 µM, a TGI [10] of 25.4 µM and a GI50 [11] of 5.69 µM. The TGI [11] was 31.4 µM, the GI50 [12] was 0.539 µM and the TGI [12] was 13.6 µM. The GI50 [13] was 0.928 µM, the TGI [13] was greater than 100 µM and the GI50 [14] was 17.9 µM. The TGI [14] was greater than 100 µM, the GI50 [15] was 3.04 µM and the TGI [15] was 13.6 µM. It also gave a GI50 [16] of 1.12 µM, a TGI [16] of 5.01 µM and a GI50 [17] of 3.08 µM. The TGI [17] was 54.1 µM, the GI50 [18] was 1.28 µM and the TGI [18] was 15.6 µM. It also gave a GI50 [19] of 4.82 µM, a TGI [19] of 21.4 µM and a GI50 [20] of 1.41 µM. It also gave a TGI [20] greater than 100 µM, a GI50 [21] of 12.7 µM and a TGI [21] greater than 100 µM. It also gave a GI50 [22] of 1.13 µM, a TGI [22] of 10.4 µM and a GI50 [23] of 4.41 µM. The TGI [23] was 26 µM, the GI50 [24] was 1.88 µM and the TGI [24] was 11.6 µM. For the same molecule, the GI50 [25] was 0.696 µM, the TGI [25] was 28.8 µM and the GI50 [26] was 5.91 µM. It also gave a TGI [26] of 25.9 µM, a GI50 [27] of 2.14 µM and a TGI [27] of 17.4 µM. The GI50 [28] was 2.07 µM, the TGI [28] was 79.2 µM and the GI50 [29] was 1.46 µM. The TGI [29] was 14.1 µM, the GI50 [30] was 1.72 µM and the TGI [30] was 12 µM. For the same molecule, the GI50 [31] was 0.414 µM, the TGI [31] was 10.3 µM and the GI50 [32] was 2.59 µM. It also gave a TGI [32] of 13.1 µM, a GI50 [33] of 1.89 µM and a TGI [33] of 19.1 µM. The GI50 [34] was 0.685 µM, the TGI [34] was 4.95 µM and the GI50 [35] was 0.329 µM. The TGI [35] was 2.23 µM, the GI50 [36] was 6.94 µM and the TGI [36] was 47.5 µM. For the same molecule, the GI50 [37] was 3.22 µM, the TGI [37] was 26.4 µM and the GI50 [38] was 0.59 µM. It also gave a TGI [38] of 5.52 µM, a GI50 [39] of 3.26 µM and a TGI [39] of 80.3 µM. It also gave a GI50 [40] of 1.95 µM, a TGI [40] of 7.16 µM and a GI50 [41] of 10.9 µM. The TGI [41] was 33.1 µM, the GI50 [42] was 0.598 µM and the TGI [42] was 2.69 µM. It also gave a GI50 [43] of 2.01 µM, a TGI [43] of 10.4 µM and a GI50 [44] of 5.09 µM. It also gave a TGI [44] of 19 µM, a GI50 [45] of 2.76 µM and a TGI [45] of 13.4 µM. For the same molecule, the GI50 [46] was 2.74 µM, the TGI [46] was 15.6 µM and the GI50 [47] was 3.1 µM. It also gave a TGI [47] of 13.7 µM, a GI50 [48] of 0.717 µM and a TGI [48] of 14.1 µM. For the same molecule, the GI50 [49] was 9.08 µM, the TGI [49] was 22.4 µM and the GI50 [50] was 0.418 µM. It also gave a TGI [50] of 3.95 µM, a GI50 [51] of 0.509 µM and a TGI [51] of 18.9 µM. The GI50 [52] was 0.62 µM, the TGI [52] was greater than 100 µM and the GI50 [53] was 2.11 µM. For the same molecule, the TGI [53] was 29.8 µM, the GI50 [54] was 3.56 µM and the TGI [54] was 18.9 µM. For the same molecule, the GI50 [55] was 0.77 µM, the TGI [55] was 11 µM and the GI50 [56] was 4.56 µM. It also gave a TGI [56] of 30.1 µM, a GI50 [57] of 1.66 µM and a TGI [57] of 10.5 µM. The GI50 [58] was 2.75 µM and the TGI [58] was 15.4 µM.

— PubChem BioAssay (NCI)
